Assay results: patent US11351185B2, “Use of isovalerylspiramycins as anti-cancer agents to inhibit metastasis” (priority 2020, dated 2022)
Values joined by “and” are separate entries in the source; they are usually repeats but may differ in a detail not shown here. Identical values can stand only once. “Also recorded” adds a separate entry of the source.

Key:
[1] = tested on: renal cell carcinoma (RCC) cell lines ACHN, UM-RC-2, RCC4 and 786-O; assay: CCK8 cell viability assay, renal cell carcinoma cell lines; format: cell-based; conditions: 48 hours
Method: To confirm the cytotoxic effect observed in the glioblastoma cell lines, the inventors assessed ISP I's effect on renal cell carcinoma (RCC) cell lines (ACHN, UM-RC-2, RCC4 and 786-0). Cell viability was assessed similarly via CKK8 analysis. […] (FIG. 4C, D).
Cell viability was measured by Cell Counting Kit-8 (CCK-8, Dojindo Molecular Technologies, Tokyo, Japan). Cells were seeded in 96-well plates at a density of 3×10^3 cells/well and cultured for 24 hours before treatment with ISP I at different concentration. After treatment for a gradient ISP I concentration from 0 to 20 μg/ml for 48 hours, while control groups were only treated in PBS solution, 10 μl of CCK-8 solution were added to each well and cells were incubated for an additional 2 hours. The absorbance in each well at a wavelength of OD450 was detected by the Synergy H1 microplate reader, a product of BioTek (Winooski, Vt. USA).

[2] = tested on: glutathione-dependent peroxidases (SELH enzyme activity); assay: Glutathione peroxidase activity assay; format: cell-based; conditions: LN229 cells
Description: (§1) Since glutathione peroxidase catalyzes the reduction of reactive oxidative species (ROS), the inventors assessed whether treatment with ISP I increased the generation of ROS in glioblastoma cell lines (LN229 and U251) and RCC cell lines (786-O and RCC4).
Glutathione peroxidase kit (Abcam, Cambridge, Mass. USA) was used to quantitate the activity of all of the glutathione-dependent peroxidases in live cells (2×10^6), which were harvested and homogenized with assay buffer provided in the kit. Then the supernatant was collected and incubated in accordance with the manufacturer's instructions. Absorbance at 340 nm was measured using the microplate reader mentioned above.

intracellular ROS = assay: ROS-Glo H2O2 assay; format: cell-based; conditions: 24 hours
Method: as §1
Cell ROS level change brought about by ISP I was measured by ROS-Glo H2O2 assay kit, a product of Promega (Madison, Wis. USA). After treatment with ISP I for 24 hours, H2O2 substrate was added and cells were incubated for 6 hours. After incubation the supernatant was collected and was incubated with ROS-Glo™ Detection Solution for 20 min at room temperature with protection from light. Luciferase data were obtained with the Synergy H1 microplate reader, a product of BioTek (Winooski, Vt. USA).

JNK2, POL1, TIF1A = assay: Western blot of JNK2 phosphorylation, POL1 and TIF1A; format: cell-based; conditions: LN229 cells
Method: (§2) SELH is localized in the nucleolus, which is a sensor of oxidative stress. Yang et al., Nature communications 7: 13599 (2016); Novoselov et al., J. Biol. Chem. 282: 11960 (2007). […] JNK2 activation by oxidative stress inactivated RNA polymerase I (POL1) transcription factor TIF1A in the nucleoli to down-regulate rRNA synthesis. Mayer et al., Genes Dev. 19: 933 (2005). To investigate whether the ribosomal biogenesis was disrupted by ISP I, pre-rRNA transcription was evaluated using real-time RT-PCR analysis in LN229 cells. […] To examine the mechanisms by which ISP I disrupts POL1 transcription, the inventors initially evaluated JNK2 activity and the overall state of the transcription machinery in ISP I-treated LN229 cells.
Western blotting was performed to detect the protein expression level of SELH, NRF2 and γH2AX regulated by ISP I. The cells were lysed by RIPA buffer from ThermoFisher Scientific, and the concentration was measured using DC Protein Assay, a Bio-Rad product. Equal amounts of protein of each sample were loaded for gel electrophoresis and were transferred to nitrocellulose membrane, blocked and incubated overnight at 4° C. with primary antibodies. Then the membranes were washed with TBST (3 times, 10 min each). Exposure, imaging, and data analysis were done using a KwikQuant Imager system, a product of Kindle Biosciences (Greenwich, Conn. USA). […]

TIF1A-POL1 interaction = assay: Co-immunoprecipitation of TIF1A and POL1; format: cell-based; conditions: LN229 cells; 10 μg/mL
Method: as §2
For co-immunoprecipitation analysis, LN229 wild-type cells, LN229 cells treated with 10 μg/mL of ISP I, and LN229 cells transfected with SELH siRNA for 24 hours were harvested, and total protein was prepared from cells using Dynabeads Co-Immunoprecipitation Kit (ThermoFisher) according to the manufacturer's protocol. Immunoblotting then was performed using anti-SELH antibody.

SELH = biological target: T1, SELH (Homo sapiens, UniProt Q8IZQ5); assay: Drug affinity responsive target stability (DARTS) assay; format: binding; design: endogenous in cells; host or cells: LN229; conditions: LN229 lysate; ISP I 40 μg/mL
T1 sequence (Q8IZQ5 1-122): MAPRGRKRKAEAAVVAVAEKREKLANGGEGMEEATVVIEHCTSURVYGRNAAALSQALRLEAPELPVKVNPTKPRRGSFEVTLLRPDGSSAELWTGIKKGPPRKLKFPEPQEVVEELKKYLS
Method: To identify ISP I's molecular target, the inventors performed drug affinity responsive target stability (DARTS) assay in LN229 cells.
The inventors discovered that the binding of ISP I to its target proteins temporarily locks them into a stable conformational structure, which prevents their recognition by proteases. After evading protease degradation, the identity of ISP I's target proteins was determined using mass spectroscopy.
DARTS assay data were taken to identify the target of ISP I in vitro. For this assay, the invenots used the protocol published by Lomenick et al., Proc. Nat'l Acad. Sci. USA 106: 21984 (2009). Briefly, LN229 cells were lysed with M-PER (Pierce) supplemented with protease and phosphatase inhibitors. After centrifugation at 14,000 rpm for 15 min, lysates were diluted to the same final volume and protein concentration with M-PER and were dissolved in TNC buffer [50 mM Tris-HCl (pH 8.0), 50 mM NaCl, 10 mM CaCl2)]. All steps were performed on ice or at 4° C. to help prevent premature protein degradation. […] Peptides were analyzed by LC/MS/MS on a Thermo LTQ-Orbitrap mass spectrometer with an Eksigent LC pump. For quantitative comparison of protein and peptide abundances, MS spectra were analyzed by means of the differential workflow of Rosetta Elucidator (Rosetta Inpharmatics).

## COC1C(O)CC(=O)OC(C)CC=CC=CC(OC2CCC(N(C)C)C(C)O2)C(C)CC(CC=O)C1OC1OC(C)C(OC2CC(C)(O)C(OC(=O)CC(C)C)C(C)O2)C(N(C)C)C1O (stereo not drawn) [ISP I, 4″-isolvalerylspiramycin I]
[1]
  cytotoxic effect on RCC cell lines: demonstrated a cytotoxic effect
[1]; ACHN, UM-RC-2, RCC4, 786-O
  most / least sensitive RCC cell line to cytotoxic effect: ACHN appeared to be the most sensitive and 786-O demonstrated to be the least sensitive
[2]
  glutathione peroxidase activity: decrease, in a dose-dependent manner, of SELH enzyme activity; also recorded: significantly reduced glutathione peroxidase activity
Intracellular ROS; 786-O and RCC4, 10 μg/ml
  intracellular ROS level (ROS-Glo H2O2): increased intracellular ROS levels
Intracellular ROS; LN229 and U251, 10 μg/mL
  intracellular ROS level (ROS-Glo H2O2): increased intracellular ROS levels
JNK2, POL1, TIF1A
  JNK phosphorylation (western blot): increased JNK2 phosphorylation; also recorded: JNK1 phosphorylation increased
  POL1 and TIF1A expression (western blot): slightly reducing POL1 and TIF1A expression in a dose-dependent manner; also recorded: expression of POL1 and TIF1A slightly decreased
TIF1A-POL1 interaction
  TIF1A-POL1 interaction (co-immunoprecipitation): interaction was disrupted by ISP I treatment
SELH
  protein protected from protease (target identification by mass spectroscopy): SELH was the most abundant primary protein present
